One compound from patent publication US20200138056A1, “ANIMAL FEED SUPPLEMENT” (MOOTRAL SA, priority 2017, published 2020) can be followed below.

Test [1] deals with ruminal fluid. Put plainly: in vitro Hohenheim gas test (HGT), methane concentration in fermentation gas. The test is classed as cell-based, sheep. As to conditions: 98.8 μg/ml; for Average Reduction (%) / Percentage of Control (First Run) / Percentage of Control (Second Run): methane; for Average Reduction (%): average of two runs. How it is done:
(§1) The in vitro Hohenheim gas test (HGT) including the preparation of all buffers and reagents was carried out according to the protocol of Menke and Steingass (1988), “Menke K. H., Steingass H., Estimation of the energetic feed value obtained from chemical analysis and gas production using rumen fluid, Anim. Res. Dev. 28, 7-55”, the contents of which are incorporated herein by reference.
Briefly, ruminal fluid was strained through four layers of gauze (1 mm pore size, type 17 MedPro, Novamed AG, Flawil, Switzerland), before being mixed with preheated, reduced Menke buffer (Menke and Steingass, 1988). The ruminal fluid/buffer mixture was then dispensed into pre-warmed incubation units containing the respective test additives. Each airtight syringe unit contained 25 ml of a ruminal fluid/buffer mixture (1:3; v/v), 300 mg dried and ground total mixed ration (TMR) and […] of the test substrate prepared to give a desired concentration ml^−1. Each test substrate and controls were tested in six replicates, with each run including a substrate control (rumen fluid plus 300 mg dried and ground substrate of the total mixed ration (TMR) fed to the fistulated sheep from which the ruminal fluid was obtained). Each substrate was also tested on different days to allow for variability in the microbial community. This mixture was incubated for 8 hours at a constant temperature of 39° C. After 8 hours, total gas and liquid volumes were recorded from the calibrated scale printed on the incubation units and fermentation was terminated by decanting only the incubation liquid from the incubation units while fermentation gas was left inside. Then […] of gas was drawn from the incubation units with a Hamilton syringe (Hamilton, AG, Bonaduz, Switzerland) through a gas-tight septum covering the second outlet of the modified units. The main constituents of the flavonoid mix were naringin and neohesperidin at a ratio of 2.10:0.92. Monensin, a polyether antibiotic isolated from Streptomyces cinnamonensis, was used as a positive control.
Fermentation gas was analysed on a Hewlett Packard gas chromatograph (model 5890 Series II, Avondale, Pa., USA) for methane concentration. For the analysis of the volatile fatty acids (VFA), samples were prepared according to the method of Doane et al. (1998) and determined by HPLC (LaChrom, L-7000 series, Hitachi Ltd., Tokyo, Japan) following the protocol of Ehrlich et al. (1981). Reduction in methane emission results in accumulation of H2, which leads to the decreases of acetate:propionate ratio and acetate:butyrate ratio. This decreased ratio indicates an increase in propionate and butyrate (as formation of propionate and butyrate uses up the H2). The increase in propionate would then result in an increase of meat productivity in ruminants, while the increase in butyrate results in an increase of milk productivity in ruminants.
The in vitro Hohenheim gas test (HGT) was used to measure average reduction in methane using a composition comprising allicin and a green tea extract and a composition comprising allicin and a pomegranate extract. The green tea and pomegranate extracts were purchased from Ethical Natural Inc. (USA).
A composition comprising allicin and the flavonoid mix used in Example 1 was also tested. Monensin, a polyether antibiotic isolated from Streptomyces cinnamonensis, was used as a positive control.

Test [2] relates to ruminal fluid. Put plainly: in vitro Hohenheim gas test (HGT), volatile fatty acids (VFA) by HPLC. The class given is cell-based, sheep. Particulars: Table 2; 98.8 μg/ml. As to the method: as §1
Briefly, ruminal fluid was strained through four layers of gauze (1 mm pore size, type 17 MedPro, Novamed AG, Flawil, Switzerland), before being mixed with preheated, reduced Menke buffer (Menke and Steingass, 1988). The ruminal fluid/buffer mixture was then dispensed into pre-warmed incubation units containing the respective test additives. […] After 8 hours, total gas and liquid volumes were recorded from the calibrated scale printed on the incubation units and fermentation was terminated by decanting only the incubation liquid from the incubation units while fermentation gas was left inside. […]
Fermentation gas was analysed on a Hewlett Packard gas chromatograph (model 5890 Series II, Avondale, Pa., USA) for methane concentration. For the analysis of the volatile fatty acids (VFA), samples were prepared according to the method of Doane et al. (1998) and determined by HPLC (LaChrom, L-7000 series, Hitachi Ltd., Tokyo, Japan) following the protocol of Ehrlich et al. (1981). […]

For the compound `CC[C@@]1([C@@H]2O[C@@H]([C@H]3O[C@@](O)(CO)[C@H](C)C[C@@H]3C)C[C@@H]2C)CC[C@H]([C@]2(C)CC[C@]3(C[C@H](O)[C@@H](C)[C@@H]([C@@H](C)[C@@H](OC)[C@H](C)C(=O)O)O3)O2)O1` [Monensin], in the test with ruminal fluid [1] (Table 1, 8 h, 39° C.), the “Average Methane Concentration (%) (First Run)” value amounted to 8.89% and the “Average Methane Concentration (%) (Second Run)” value is listed as 9.71%. Besides, in the test on ruminal fluid [1] (Table 1), the “Average Reduction (%)” value turned out to be 27%, the “Percentage of Control (First Run)” value is reported as 73% and the “Percentage of Control (Second Run)” value is given as 74%. In the test with ruminal fluid [1] (Table 3), the “Average Methane Concentration (%) (First Run)” value worked out at 8.2%, the “Average Methane Concentration (%) (Second Run)” value was found to be 9.9%, the “Average Reduction (%)” value came to 27% and the “Percentage of Control (First Run)” value came to 66%. In addition, the “Percentage of Control (Second Run)” value in the test on ruminal fluid [1] (Table 3) came out at 80%. In addition, in the test on ruminal fluid [1] (Table 4), the “Average Methane Concentration (%) (First Run)” value stood at 8.1%, the “Average Methane Concentration (%) (Second Run)” value is listed as 7.1%, the “Average Reduction (%)” value is 33% and the “Percentage of Control (First Run)” value is reported as 67%. Besides, the “Percentage of Control (Second Run)” value in the test on ruminal fluid [1] (Table 4) is reported as 66%. In the test on ruminal fluid [2], the “Butyrate Percentage of Control (%)” value was found to be 73% and the “Propionate Percentage of Control (%)” value is listed as 116%.
